Data set [1] concerns liver cell (galactosamine-induced toxicity). Description: Protection effect against galactosamine-induced toxicity of liver cell (GPT activity, relative protection). In kind it is cell-based, male Wister rats. The following applies: 1.5 mM galactosamine, 14 h, healthy liver cell = 100%, toxicity = 0%; for Relative liver cell protection (%) at 5 µg/mL / Relative liver cell protection (%) at 50 µg/mL: Rattus norvegicus. The text has this: To investigate the protection effect of the compounds of the formula 1 of this invention, i. e. 2-oxoasiatic acid, 2-methylasiatic acid, methyl 2α-acetoxyurs-12-en-23-al-3-on-28-oate, tetrahydropyranyl 3β,23-diacetoxyurs-12-en-28-oate, ethoxymethyl 2α-hydroxy-3β,23-isopropylidendioxyurs-12-en-28-oate, methyl 2,3-β-epoxy-12-en-23-carbomethoxyurs-28-oate, methyl 2,3-β-epoxy-12-en-23-benzamidours-28-oate, 1-ethoxyethyl asiatate and 2',3',4',6'-tetra-O-acetylglucosyl 2,3,23-tri-O-acetylurs-28-oate, against galactosamine-induced toxicity of liver cell, the following experiment was performed.
(§1) As experimental animals, male Wister rats weighing between 150~200 g were used. All rats were fasted during 18~24 h, and then the isolation of liver cells was performed by using the two-step collagenase flow-through method [D. M. Crisp and C. I. Pogson, Biochem., 126, 1009 (1972)], which is a form that the Berry & Friend method [M. N. Berry and D. S. Friend, J. Cell, Biol., 43, 5006 (1969)] is a little modified.
(§2) The isolated liver cells were incubated in a normal incubation medium for 1.5 h, and then more incubated in 1.5 mM galactosamine-containing incubation medium for 14 h to induce liver cells to get into the toxicity of galactosamine [Y. Kris, M. Tohkin and H. Hikino, J. Nat. Prod., 46, 841 (1983)].
(§3) These liver cells getting into toxicity induced by said methods were incubated separately in the incubation mediums containing said compounds of 5 μg/ml and 50 μg/ml. Then, withdrawing the incubation medium, the activity of glutamic pyruvic transaminase (GPT) was determined by the Reitman-Frankel method [S. Reitman and S. Frankel, Am, J. Cli. Pathol., 28, 56 (1957)]. The GPT value of healthy liver cell was defined as 100%, and that of liver cell getting into toxicity induced by said methods was defined as 0%. At the basis of said definition, the GPT values of liver cells recovered from galactosamine-induced toxicity by the compounds were converted into relative protections (%) to show the protection effect of liver cell against the toxicity by the compounds.

The subject of data set [2] is liver cell (carbon tetrachloride-induced toxicity). Put plainly: Protection effect against carbon tetrachloride-induced toxicity of liver cell (GPT activity, relative protection). In kind it is cell-based, male Wister rats. Particulars: 10 mM carbon tetrachloride, 1.5 h; for Relative liver cell protection at 5 µg/mL / Relative liver cell protection at 50 µg/mL: Rattus norvegicus. How it is done: as §1, §3
To investigate the protection effect of the compounds of the formula 1 of this invention against carbon tetrachloride-induced toxicity of liver cell, the following experiment was performed.
(§4) The experiment was performed in the same manner as in Experimental example 1, except that carbon tetrachloride was used by following method to induce liver cells to get into the toxicity.
(§5) The isolated liver cells were incubated in a normal incubation medium for 24 h, and then more incubated in 10 mM carbon tetrachloride-containing incubation medium for 1.5 h to induce liver cells to get into the toxicity of carbon tetrachloride [Y. Kiso, Y. Suzuki and H. Hikino, Planta. Med., 49, 222 (1983)].

Data set [3] has as its system liver cell (galactosamine-induced toxicity). Description: Concentration dependency of protection effect against galactosamine-induced toxicity of liver cell. In kind it is cell-based, male Wister rats. The following applies: for Relative liver cell protection (%) at 1 µM / Relative liver cell protection (%) at 10 µM / Relative liver cell protection (%) at 50 µM / Relative liver cell protection (%) at 100 µM / Relative liver cell protection (%) at 200 µM: Rattus norvegicus. The procedure: as §1, §2, §3
To investigate concentration dependency of the protection effect of the compounds of the formula 1 of this invention, i. e. 2-oxoasiatic acid, 2-methylasiatic acid and methyl 2α-acetoxyurs-12-en-23-al-3-on-28-oate, against galactosamine-induced toxicity of liver cell, the experiment was performed in the same manner as in Experimental example 1, except that the compound concentrations tested were 1, 10, 50, 100 and 200 μM.

The subject of data set [4] is liver cell (carbon tetrachloride-induced toxicity). Put plainly: Concentration dependency of protection effect of liver cell against carbon tetrachloride-induced toxicity. The format is cell-based, male Wister rats. The procedure:
as §1, §3, §4, §5
To investigate the concentration dependency of the protection effect of the compounds of the formula 1 of this invention, i. e. 2-oxoasiatic acid, against carbon tetrachloride-induced toxicity of liver cell, the experiment was performed in the same manner as in Experimental example 2, except that the compound concentrations tested were 1, 10, 50, 100 and 200 μM.

The nature of the next data set: in vivo. Particulars: mouse, in vivo, ip. The procedure:
(§6) Administering 2-oxoasiatic acid of various concentrations to male ICR mice weighing between 20~25 g by peritoneal injection, the toxicity of 2oxoasiatic acid was tested.

The next data set deals with male ICR mice. Description: Safety study through toxicity test in mice by peritoneal injection. How it is done: as §6
The mark [5] stands for this setting: 5 μg/ml of compound concentration.
[6] abbreviates: 50 μg/ml of compound concentration.

What is called LD50 is the dose at which mortality reaches 50%. The low end stands for greater toxicity, the high end for lower toxicity.

Turning to “2',3',4',6'-tetra-O-acetylglucosyl 2,3,23-tri-O-acetylurs-28-oate”, the “Relative liver cell protection (%)” value in data set [1] (setting [5]) was found to be 79%; in data set [1] (setting [6]), 21%; in data set [2] (setting [5]) it was 39%; in data set [2] (setting [6]), 34%.

Consider 2-methylasiatic acid, for which the “Relative liver cell protection (%)” value in data set [1] (setting [5]) turned out to be 43%; in data set [1] (setting [6]), 62%; in data set [2] (setting [5]) it was 29%; in data set [2] (setting [6]) it was 9%; in data set [3] (compound 1 μM), 31.9%; in data set [3] (compound 10 μM), 40.3%. In addition, the “Relative liver cell protection (%)” value is 58.2% in data set [3] (compound 50 μM), 43.9% in data set [3] (compound 100 μM) and 0.0% in data set [3] (compound 200 μM). In addition, the “concentration dependency of protection effect” value (“concentration dependency” for short) was “the protection effects of them rapidly decreased” in data set [3] (100 and 200 μM); “the greater were the protection effects” in data set [3] (range of 1~50 μM).

In data set [1] (setting [5]), `CCOC(C)OC(=O)[C@]12CC[C@@H](C)[C@H](C)[C@H]1C1=CC[C@@H]3[C@@]4(C)C[C@@H](O)[C@H](O)[C@@](C)(CO)[C@@H]4CC[C@@]3(C)[C@]1(C)CC2` (stereo partly shown) [1-Ethoxyethyl asiatate, 1-ethoxyethyl asiatate] came in with a Relative liver cell protection (%) at 5 µg/mL of 66%. This molecule also registered a Relative liver cell protection (%) at 50 µg/mL in data set [1] (setting [6]) of 0%. Further, the Relative liver cell protection at 5 µg/mL in data set [2] (setting [5]) is 8%. The same molecule came in with a Relative liver cell protection at 50 µg/mL in data set [2] (setting [6]) of 7%.

For the molecule `C[C@H]1[C@H](C)CC[C@]2(C(=O)O)CC[C@]3(C)C(=CC[C@@H]4[C@@]5(C)CC(=O)[C@H](O)[C@@](C)(CO)[C@@H]5CC[C@]43C)[C@H]12` [2-Oxoasiatic acid, 2-oxoasiatic acid], the Relative liver cell protection (%) at 5 µg/mL in data set [1] (setting [5]) stood at 15%. Further, the Relative liver cell protection (%) at 50 µg/mL in data set [1] (setting [6]) worked out at 62%. In data set [2] (setting [5]), the Relative liver cell protection at 5 µg/mL came out at 30%. The Relative liver cell protection at 50 µg/mL in data set [2] (setting [6]) came out at 44%. In addition, the “concentration dependency” value in data set [3] (100 and 200 μM) is listed as “the protection effects of them rapidly decreased”. In data set [3] (compound 1 μM), this molecule displayed a Relative liver cell protection (%) at 1 µM of 29.8%. The same molecule had a Relative liver cell protection (%) at 10 µM in data set [3] (compound 10 μM) of 43.2%. Besides, in data set [3] (compound 50 μM), the Relative liver cell protection (%) at 50 µM was 50.4%. Further, in data set [3] (compound 100 μM), the Relative liver cell protection (%) at 100 µM stood at 25.3%. For the same molecule, in data set [3] (compound 200 μM), the Relative liver cell protection (%) at 200 µM worked out at 8.5%. The “concentration dependency” value in data set [3] (range of 1~50 μM) is on record as “the greater were the protection effects”. In data set [4] (Rattus norvegicus, compound 1 μM), this molecule gave a relative liver cell protection at 1 µM of 1.6%. This molecule displayed a relative liver cell protection at 10 µM in data set [4] (Rattus norvegicus, compound 10 μM) of 5%. In addition, in data set [4] (Rattus norvegicus, compound 50 μM), the relative liver cell protection at 50 µM amounted to 3.3%. Besides, the relative liver cell protection at 100 µM in data set [4] (Rattus norvegicus, compound 100 μM) came out at 30.9%. This molecule showed a relative liver cell protection at 200 µM in data set [4] (Rattus norvegicus, compound 200 μM) of 48.1%. The “concentration dependency” value in data set [4] (concentration range of 1~200 μM) is “the greater was the protection effects”. The same molecule displayed an LD50 in “in vivo” of 750 mg/kg. Moreover, the opisthotonus result in the data set with male ICR mice (male ICR mice, peritoneal injection, fatal dose) was “opisthotonus was showed at a fatal dose”. In the data set with male ICR mice (mouse, in vivo), the “body weight of surviving mice” value is on record as “did not change”; the motor activity result is on record as “motor activity was decreased dose-dependently”; the “pilo-erection, tachypnea and convulsion” value is recorded as “induced dose-dependently”; the “recovery of surviving mice” value is on record as “rapid recovery”. Besides, in the data set on male ICR mice (mouse, in vivo), the type of toxicity entry is “typical toxicity of central nervous system”.

On to `CCOCOC(=O)[C@]12CC[C@@H](C)[C@H](C)[C@H]1C1=CC[C@@H]3[C@@]4(C)C[C@@H](O)[C@@H]5OC(C)(C)OC[C@@]5(C)[C@@H]4CC[C@@]3(C)[C@]1(C)CC2` [ethoxymethyl 2α-hydroxy-3β,23-isopropylidendioxyurs-12-en-28-oate], for which, in data set [1] (setting [5]), the Relative liver cell protection (%) at 5 µg/mL was 66%. This molecule also registered a Relative liver cell protection (%) at 50 µg/mL in data set [1] (setting [6]) of 45%. For the same molecule, the Relative liver cell protection at 5 µg/mL in data set [2] (setting [5]) came out at 15%. The Relative liver cell protection at 50 µg/mL in data set [2] (setting [6]) came out at 5%.

In data set [1] (setting [5]), `COC(=O)[C@]12CC[C@@H](C)[C@H](C)[C@H]1C1=CC[C@@H]3[C@@]4(C)C[C@@H](OC(C)=O)C(=O)[C@@](C)(C=O)[C@@H]4CC[C@@]3(C)[C@]1(C)CC2` [methyl 2α-acetoxyurs-12-en-23-al-3-on-28-oate] gave a Relative liver cell protection (%) at 5 µg/mL of 42%. This molecule also yielded a Relative liver cell protection (%) at 50 µg/mL in data set [1] (setting [6]) of 80%. Further, the Relative liver cell protection at 5 µg/mL in data set [2] (setting [5]) came out at 21%. In addition, the Relative liver cell protection at 50 µg/mL in data set [2] (setting [6]) was found to be 0%. Moreover, the “concentration dependency” value is “the protection effects of them rapidly decreased” in data set [3] (100 and 200 μM); “the greater were the protection effects” in data set [3] (range of 1~50 μM). The molecule further came in with a Relative liver cell protection (%) at 1 µM in data set [3] (compound 1 μM) of 27.4%. This molecule displayed a Relative liver cell protection (%) at 10 µM in data set [3] (compound 10 μM) of 39%. The molecule further gave a Relative liver cell protection (%) at 50 µM in data set [3] (compound 50 μM) of 60%. In data set [3] (compound 100 μM), this molecule showed a Relative liver cell protection (%) at 100 µM of 33.1%. Also, the Relative liver cell protection (%) at 200 µM in data set [3] (compound 200 μM) is 0%.

`CC(=O)OC[C@@]1(C)[C@@H]2CC[C@]3(C)[C@H](CC=C4[C@@H]5[C@@H](C)[C@H](C)CC[C@]5(C(=O)OC5CCCCO5)CC[C@]43C)[C@@]2(C)CC[C@@H]1OC(C)=O` (stereo partly drawn) [tetrahydropyranyl 3β,23-diacetoxyurs-12-en-28-oate] gave a Relative liver cell protection (%) at 5 µg/mL in data set [1] (setting [5]) of 58%. This molecule had a Relative liver cell protection (%) at 50 µg/mL in data set [1] (setting [6]) of 66%. Also, in data set [2] (setting [5]), the Relative liver cell protection at 5 µg/mL was 42%. Moreover, the Relative liver cell protection at 50 µg/mL in data set [2] (setting [6]) was found to be 30%.

Regarding “methyl 2,3-β-epoxy-12-en-23-benzamidours-28-oate”, the “Relative liver cell protection (%)” value was 38% in data set [1] (setting [5]), 40% in data set [1] (setting [6]), 0% in data set [2] (setting [5]) and 23% in data set [2] (setting [6]).

“methyl 2,3-β-epoxy-12-en-23-carbomethoxyurs-28-oate”: the “Relative liver cell protection (%)” value is on record as 26% in data set [1] (setting [5]), 53% in data set [1] (setting [6]), 0% in data set [2] (setting [5]) and 0% in data set [2] (setting [6]).

Source of the values: patent US6274559A, “Liver protection or treatment agents comprising asiatic acid derivatives as the active component” (Dong Kook Pharmaceutical Co., Ltd., priority 1997, dated 2001).
